Reference: patent US10285989B2, “Pyrimidinone amide compounds as PDE2 inhibitors” (Merck Sharp & Dohme Corp., priority 2015, dated 2019)
Read-outs that look alike come from different tables or passages of the source.

Assays:
human PDE2A1 = human PDE2A1 (Homo sapiens (Human), UniProt O00408); assay: PDE2 IMAP FP inhibition assay, human PDE2A1 (selectivity panel format); assay type: biochemical
How it was run: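 IMAP fluorescence polarization assay; substrate 50 nM FAM-cAMP with 1000 nM cGMP, enzyme at ~20% conversion, in 10 mM Tris pH 7.2, 10 mM MgCl2, 1 mM DTT, 0.01% Tween-20. 60 min room temperature, stopped with IMAP binding reagent, 1 h, then parallel/perpendicular fluorescence read.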

[1] = target: P-glycoprotein (P-gp, rat Mdr1a) (Rattus norvegicus, UniProt Q6PSM0); assay: P-gp transport, experimental BA/AB ratio, rat LLC-Mdr1a; assay type: in vitro ADME; settings: LLC-PK1; rat LLC-Mdrla; 1 μM substrate concentration
Sequence of P-glycoprotein (P-gp, rat Mdr1a) (Q6PSM0 1-1272): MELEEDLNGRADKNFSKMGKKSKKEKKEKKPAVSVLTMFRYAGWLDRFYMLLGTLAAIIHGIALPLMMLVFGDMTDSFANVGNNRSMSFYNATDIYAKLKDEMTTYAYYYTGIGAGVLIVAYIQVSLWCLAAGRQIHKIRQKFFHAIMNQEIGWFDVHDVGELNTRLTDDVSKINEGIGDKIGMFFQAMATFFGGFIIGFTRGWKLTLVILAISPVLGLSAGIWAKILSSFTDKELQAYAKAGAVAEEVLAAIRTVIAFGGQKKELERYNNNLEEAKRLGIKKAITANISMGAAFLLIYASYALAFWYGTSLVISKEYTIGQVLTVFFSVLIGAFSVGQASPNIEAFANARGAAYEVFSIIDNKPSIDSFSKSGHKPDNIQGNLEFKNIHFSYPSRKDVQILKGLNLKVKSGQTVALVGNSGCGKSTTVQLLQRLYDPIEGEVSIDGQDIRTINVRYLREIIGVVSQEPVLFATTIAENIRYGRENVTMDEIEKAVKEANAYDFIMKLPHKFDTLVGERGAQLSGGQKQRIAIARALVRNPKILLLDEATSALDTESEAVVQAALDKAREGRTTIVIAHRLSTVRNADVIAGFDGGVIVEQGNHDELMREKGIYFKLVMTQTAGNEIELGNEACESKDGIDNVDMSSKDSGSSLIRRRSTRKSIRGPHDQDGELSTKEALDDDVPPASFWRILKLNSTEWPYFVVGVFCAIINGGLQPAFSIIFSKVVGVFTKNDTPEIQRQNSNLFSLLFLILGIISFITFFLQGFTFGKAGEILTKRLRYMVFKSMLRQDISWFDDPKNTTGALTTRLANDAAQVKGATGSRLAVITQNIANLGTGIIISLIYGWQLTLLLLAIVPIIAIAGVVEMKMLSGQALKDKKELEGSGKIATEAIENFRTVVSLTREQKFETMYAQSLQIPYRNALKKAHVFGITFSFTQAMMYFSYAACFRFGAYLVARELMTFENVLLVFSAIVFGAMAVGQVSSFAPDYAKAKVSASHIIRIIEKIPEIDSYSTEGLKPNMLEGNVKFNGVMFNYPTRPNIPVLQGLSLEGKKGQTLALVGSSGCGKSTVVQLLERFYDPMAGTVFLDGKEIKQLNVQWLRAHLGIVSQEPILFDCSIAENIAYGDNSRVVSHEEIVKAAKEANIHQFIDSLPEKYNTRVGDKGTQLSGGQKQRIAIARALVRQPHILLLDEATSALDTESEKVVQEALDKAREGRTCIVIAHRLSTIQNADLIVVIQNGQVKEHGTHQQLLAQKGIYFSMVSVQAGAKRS
Source text: (§1) See Doan et al. “Passive permeability and P-glycoprotein-mediated efflux differentiate central nervous system (CNS) and non-CNS marketed drugs”, J. Pharm. Exper. […] Desirable human BA/AB ratio is less than 2.0. […] See, for example, Desai, et al. Integration of in Silico and in Vitro Tools for Scaffold Optimization during Drug Discovery: Predicting P-glycoprotein Efflux” Mol. Pharmac.

P-glycoprotein (P-gp) = P-glycoprotein (P-gp) (Homo sapiens (Human), UniProt P08183); assay: P-gp transport, experimental BA/AB ratio, human; assay type: in vitro ADME; settings: LLC-PK1, 1 μM substrate concentration
Sequence of P-glycoprotein (P-gp) (P08183 whole entry): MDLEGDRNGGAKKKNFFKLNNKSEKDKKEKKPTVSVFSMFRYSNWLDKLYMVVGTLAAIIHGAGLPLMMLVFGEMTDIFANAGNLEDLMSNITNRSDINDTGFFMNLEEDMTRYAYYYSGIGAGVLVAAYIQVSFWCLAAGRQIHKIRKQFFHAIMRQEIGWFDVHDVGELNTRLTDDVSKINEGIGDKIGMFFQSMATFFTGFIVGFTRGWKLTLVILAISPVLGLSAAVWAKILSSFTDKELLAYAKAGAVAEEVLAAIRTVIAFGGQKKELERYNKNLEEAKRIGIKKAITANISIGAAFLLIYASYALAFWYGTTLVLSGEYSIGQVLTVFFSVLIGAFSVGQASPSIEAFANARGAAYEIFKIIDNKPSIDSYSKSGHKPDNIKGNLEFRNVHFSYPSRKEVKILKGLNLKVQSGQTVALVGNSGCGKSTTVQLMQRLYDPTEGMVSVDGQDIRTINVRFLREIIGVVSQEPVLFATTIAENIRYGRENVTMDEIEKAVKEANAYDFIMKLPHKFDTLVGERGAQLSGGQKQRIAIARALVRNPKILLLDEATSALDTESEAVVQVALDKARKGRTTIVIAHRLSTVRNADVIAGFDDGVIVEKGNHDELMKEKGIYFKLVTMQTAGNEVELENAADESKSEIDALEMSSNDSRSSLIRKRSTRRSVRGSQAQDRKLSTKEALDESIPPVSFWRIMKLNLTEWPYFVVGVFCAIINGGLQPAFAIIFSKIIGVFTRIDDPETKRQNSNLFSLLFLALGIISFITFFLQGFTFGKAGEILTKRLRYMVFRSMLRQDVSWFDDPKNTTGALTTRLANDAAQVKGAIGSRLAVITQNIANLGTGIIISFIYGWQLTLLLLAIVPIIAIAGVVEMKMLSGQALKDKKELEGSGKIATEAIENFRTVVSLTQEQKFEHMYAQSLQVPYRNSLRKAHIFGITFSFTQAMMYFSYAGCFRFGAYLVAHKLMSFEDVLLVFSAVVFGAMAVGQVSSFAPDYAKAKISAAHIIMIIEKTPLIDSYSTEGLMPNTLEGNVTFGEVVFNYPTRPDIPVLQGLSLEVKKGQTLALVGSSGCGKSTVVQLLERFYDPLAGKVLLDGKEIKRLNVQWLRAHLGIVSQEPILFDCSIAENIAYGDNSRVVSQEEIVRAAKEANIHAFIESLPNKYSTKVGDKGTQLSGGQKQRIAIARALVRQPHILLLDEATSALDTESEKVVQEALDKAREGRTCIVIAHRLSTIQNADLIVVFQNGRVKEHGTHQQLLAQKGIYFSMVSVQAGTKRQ
Source text: as §1

Rhesus PDE2A3 = Rhesus PDE2A3 (Macaca mulatta, UniProt B3VTJ2); assay: PDE2 fluorescence polarization (IMAP FP) inhibition assay, rhesus PDE2A3; assay type: biochemical, rhesus macaque
Sequence of Rhesus PDE2A3 (B3VTJ2 1-941): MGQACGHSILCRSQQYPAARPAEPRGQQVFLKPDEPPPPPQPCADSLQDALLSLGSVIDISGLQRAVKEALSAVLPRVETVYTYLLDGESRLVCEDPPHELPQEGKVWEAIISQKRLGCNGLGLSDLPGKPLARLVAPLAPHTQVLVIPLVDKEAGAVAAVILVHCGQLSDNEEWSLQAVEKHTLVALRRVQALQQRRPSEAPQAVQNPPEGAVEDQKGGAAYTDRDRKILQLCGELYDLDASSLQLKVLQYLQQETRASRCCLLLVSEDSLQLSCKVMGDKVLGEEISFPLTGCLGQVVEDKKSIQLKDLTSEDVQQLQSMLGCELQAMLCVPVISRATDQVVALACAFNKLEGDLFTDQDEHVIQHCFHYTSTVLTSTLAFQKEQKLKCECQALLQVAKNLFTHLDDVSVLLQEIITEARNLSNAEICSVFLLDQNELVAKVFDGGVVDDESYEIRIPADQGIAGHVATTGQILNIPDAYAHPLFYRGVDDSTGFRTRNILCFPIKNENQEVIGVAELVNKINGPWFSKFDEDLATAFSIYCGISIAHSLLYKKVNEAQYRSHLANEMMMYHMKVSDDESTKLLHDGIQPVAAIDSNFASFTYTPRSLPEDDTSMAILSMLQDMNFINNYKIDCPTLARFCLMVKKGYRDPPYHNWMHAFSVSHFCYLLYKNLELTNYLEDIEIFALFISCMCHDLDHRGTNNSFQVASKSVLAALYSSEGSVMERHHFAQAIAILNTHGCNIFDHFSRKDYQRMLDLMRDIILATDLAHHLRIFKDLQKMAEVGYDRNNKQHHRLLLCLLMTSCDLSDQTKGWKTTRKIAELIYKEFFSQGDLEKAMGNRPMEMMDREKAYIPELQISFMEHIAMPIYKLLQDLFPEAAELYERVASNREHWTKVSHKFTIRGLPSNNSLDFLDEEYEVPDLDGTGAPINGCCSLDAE

[2] = Lab A, read-out: Human PDE2 Ki (nM) - Lab A
[3] = Lab A, read-out: Rhesus PDE2 Ki (nM) - Lab A
[4] = Lab B, read-out: Human PDE2 Ki (nM) - Lab B
[5] = Lab B, read-out: Rhesus PDE2 Ki (nM) - Lab B

Sequence of human PDE2A1 (O00408 other isoform, or with tags, fused parts or gaps): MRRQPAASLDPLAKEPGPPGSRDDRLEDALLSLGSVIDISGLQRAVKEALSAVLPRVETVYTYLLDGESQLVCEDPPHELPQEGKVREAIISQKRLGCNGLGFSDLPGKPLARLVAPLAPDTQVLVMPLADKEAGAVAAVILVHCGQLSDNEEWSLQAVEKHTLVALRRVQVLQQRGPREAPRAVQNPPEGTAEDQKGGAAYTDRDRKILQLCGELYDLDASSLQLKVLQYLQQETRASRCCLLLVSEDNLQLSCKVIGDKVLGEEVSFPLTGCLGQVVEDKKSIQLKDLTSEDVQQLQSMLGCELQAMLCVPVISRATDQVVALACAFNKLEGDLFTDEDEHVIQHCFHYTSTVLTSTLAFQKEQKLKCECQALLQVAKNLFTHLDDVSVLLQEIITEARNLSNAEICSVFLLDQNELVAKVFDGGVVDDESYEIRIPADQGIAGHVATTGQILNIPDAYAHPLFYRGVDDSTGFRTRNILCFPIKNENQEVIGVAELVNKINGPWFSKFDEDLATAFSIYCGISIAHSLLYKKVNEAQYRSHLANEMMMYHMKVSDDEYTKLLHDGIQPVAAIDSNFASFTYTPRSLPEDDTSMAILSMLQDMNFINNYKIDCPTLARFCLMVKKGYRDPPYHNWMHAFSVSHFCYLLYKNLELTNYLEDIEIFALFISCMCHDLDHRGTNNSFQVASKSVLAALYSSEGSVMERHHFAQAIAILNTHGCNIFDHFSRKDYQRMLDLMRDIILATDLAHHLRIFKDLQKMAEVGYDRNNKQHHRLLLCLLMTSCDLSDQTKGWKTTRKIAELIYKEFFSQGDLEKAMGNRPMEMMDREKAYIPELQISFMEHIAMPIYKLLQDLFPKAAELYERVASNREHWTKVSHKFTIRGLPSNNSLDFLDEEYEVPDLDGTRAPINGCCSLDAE

With C[C@@H](NC(=O)c1cc(=O)[nH]c(N2Cc3cncnc3C2)n1)c1ccc(C(F)(F)F)cc1 [Example 161, 2-(5,7-dihydro-6H-pyrrolo[3,4-d]pyrimidin-6-yl)-6-oxo-N-{(1R)-1-[4-(trifluoromethyl)phenyl]ethyl}-1,6-dihydropyrimidine-4-carboxamide] the Ki (human PDE2A1; [2]) was 5 nM, the efflux ratio at 1 μM [1] was 23.7 and the efflux ratio at 1 μM (P-glycoprotein (P-gp)) was 14.6. The Ki (Rhesus PDE2A3; [3]) was 5.1 nM.
For CC(C)[C@@H](NC(=O)c1cc(=O)[nH]c(N2CC[C@H](F)C2)n1)c1ccc(OC(F)(F)F)c(F)c1 [Example 162, 2-[(3S)-3-fluoropyrrolidin-1-yl]-N-{(1R)-1-[3-fluoro-4-(trifluoromethoxy)phenyl]-2-methylpropyl}-6-oxo-1,6-dihydropyrimidine-4-carboxamide], the Ki (human PDE2A1; [4]) was 0.61 nM, the efflux ratio at 1 μM [1] was 17.9 and the efflux ratio at 1 μM (P-glycoprotein (P-gp)) was 2.5. For the same compound, the Ki (Rhesus PDE2A3; [3]) was 0.51 nM.
For CC(C)[C@@H](NC(=O)c1cc(=O)[nH]c(N2CC[C@@H](F)C2)n1)c1ccc(OC(F)(F)F)c(F)c1 [Example 163, 2-[(3R)-3-fluoropyrrolidin-1-yl]-N-{(R)-1-[3-fluoro-4-(trifluoromethoxy)phenyl]-2-methylpropyl}-6-oxo-1,6-dihydropyrimidine-4-carboxamide], the Ki (human PDE2A1; [4]) was 4.2 nM, the efflux ratio at 1 μM [1] was 15.8 and the efflux ratio at 1 μM (P-glycoprotein (P-gp)) was 0.7. The Ki (Rhesus PDE2A3; [3]) was 4.1 nM and the Ki (Rhesus PDE2A3; [5]) was 5 nM.
CC(C)[C@@H](NC(=O)c1cc(=O)[nH]c(N2CC(F)C2)n1)c1ccc(OC(F)(F)F)c(F)c1 [Example 164, 2-(3-fluoroazetidin-1-yl)-N-{(1R)-1-[3-fluoro-4-(trifluoromethoxy)phenyl]-2-methylpropyl}-6-oxo-1,6-dihydropyrimidine-4-carboxamide] gave a Ki (human PDE2A1; [4]) of 3.9 nM, an efflux ratio at 1 μM [1] of 7.5 and an efflux ratio at 1 μM (P-glycoprotein (P-gp)) of 2.6. For the same compound, the Ki (Rhesus PDE2A3; [3]) was 2.4 nM and the Ki (Rhesus PDE2A3; [5]) was 4 nM.
Work on CC(C)[C@@H](NC(=O)c1cc(=O)[nH]c(N2CC[C@H](F)C2)n1)c1ccc(SC(F)(F)F)c(F)c1 [Example 165, 2-[(3S)-3-fluoropyrrolidin-1-yl]-N-[(1R)-1-{3-fluoro-4-[(trifluoromethyl)sulfanyl]phenyl}-2-methylpropyl]-6-oxo-1,6-dihydropyrimidine-4-carboxamide] yielded a Ki (human PDE2A1; [4]) of 0.45 nM, an efflux ratio at 1 μM [1] of 20.1 and an efflux ratio at 1 μM (P-glycoprotein (P-gp)) of 3.6. The Ki (Rhesus PDE2A3; [3]) was 0.33 nM and the Ki (Rhesus PDE2A3; [5]) was 0.5 nM.
O=C(N[C@@H](c1ccc(C(F)(F)F)cc1)C1CC1)c1cc(=O)[nH]c(N2CC[C@H](F)C2)n1 [Example 167, N-{(R)-cyclopropyl[4-(trifluoromethyl)phenyl]methyl}-2-[(3S)-3-fluoropyrrolidin-1-yl]-6-oxo-1,6-dihydropyrimidine-4-carboxamide] showed a Ki (human PDE2A1; [4]) of 2.3 nM, an efflux ratio at 1 μM [1] of 27.4 and an efflux ratio at 1 μM (P-glycoprotein (P-gp)) of 1.9. For the same compound, the Ki (Rhesus PDE2A3; [5]) was 1.4 nM.
In the case of CC(C)[C@@H](NC(=O)c1cc(=O)[nH]c(N2CC[C@H](F)C2)n1)c1ccc(C(F)(F)F)c(F)c1 [Example 168, 2-[(3S)-3-fluoropyrrolidin-1-yl]-N-{(1R)-1-[3-fluoro-4-(trifluoromethyl)phenyl]-2-methylpropyl}-6-oxo-1,6-dihydropyrimidine-4-carboxamide], the Ki (human PDE2A1; [4]) was 0.47 nM, the efflux ratio at 1 μM [1] was 21.2 and the efflux ratio at 1 μM (P-glycoprotein (P-gp)) was 4.1. For the same compound, the Ki (Rhesus PDE2A3; [5]) was 0.5 nM.
CC(C)(C)[C@@H](NC(=O)c1cc(=O)[nH]c(N2CC[C@H](F)C2)n1)c1ccc(C(F)(F)F)cc1 [Example 169, N-{(1R)-2,2-dimethyl-1-[4-(trifluoromethyl)phenyl]propyl}-2-[(3S)-3-fluoropyrrolidin-1-yl]-6-oxo-1,6-dihydropyrimidine-4-carboxamide] gave a Ki (human PDE2A1; [4]) of 0.17 nM, an efflux ratio at 1 μM [1] of 9.8 and an efflux ratio at 1 μM (P-glycoprotein (P-gp)) of 2.5. The Ki (Rhesus PDE2A3; [5]) was 0.14 nM.
For CCCOc1nc(C(=O)N[C@H](C)c2ccc(C(F)(F)F)cc2)cc(=O)[nH]1 [Example 178, 6-oxo-2-propoxy-N-{(1R)-1-[4-(trifluoromethyl)phenyl]ethyl}-1,6-dihydropyrimidine-4-carboxamide], the Ki (human PDE2A1; [2]) was 52 nM, the efflux ratio at 1 μM [1] was 1 and the efflux ratio at 1 μM (P-glycoprotein (P-gp)) was 0.4. For the same compound, the Ki (Rhesus PDE2A3; [3]) was 58 nM.
Compound CC(C)OCCCOc1nc(C(=O)NC(C)c2ccc(C(F)(F)F)cc2)cc(=O)[nH]1 (centres unmarked) [Example 183, 2-[3-(1-methylethoxy)propoxy]-6-oxo-N-{1-[4-(trifluoromethyl)phenyl]ethyl}-1,6-dihydro pyrimidine-4-carboxamide] has a Ki (human PDE2A1; [2]) of 23 nM, an efflux ratio at 1 μM [1] of 7.9 and an efflux ratio at 1 μM (P-glycoprotein (P-gp)) of 1.2. For the same compound, the Ki (Rhesus PDE2A3; [3]) was 29 nM.
COc1ccc(OCCCOc2nc(C(=O)NC(C)c3ccc(C(F)(F)F)cc3)cc(=O)[nH]2)cc1 (centres unmarked) [Example 194, 2-[3-(4-methoxyphenoxy)propoxy]-6-oxo-N-{1-[4-(trifluoromethyl)phenyl]ethyl}-1,6-dihydropyrimidine-4-carboxamide] showed a Ki (human PDE2A1; [2]) of 4.4 nM, an efflux ratio at 1 μM [1] of 8.4 and an efflux ratio at 1 μM (P-glycoprotein (P-gp)) of 1. It also gave a Ki (Rhesus PDE2A3; [3]) of ~5.2 nM.
